Results: PubChem BioAssay AID1963968 (Molecular Pharmacology Branch, DTP, NCI, 2024)
pIC50: −log10 of the molar value.

System: 945468-187-T-J3-PDC spheroids with HUVEC/MSC, viability
Assay: Anticancer human tumor 945468-187-T-J3-PDC patient-derived rectal carcinoma cell line growth inhibition [PI3K]
Details: for pIC50: curve of first compound; for viability, T/C: stronger effect = lower value; active means viability on the fitted dose curve at most 10% of control; inactive means the rest
Description: Combinatorial screen of targeted agents with the PI3K inhibitors inavolisib, alpelisib, duvelisib, and copanlisib in multi-cell type tumor spheroids
A high-throughput screen of multi-cell type tumor spheroids was designed to identify active combinations of targeted small molecules and PI3K pathway inhibitors. Complex spheroids include a stromal component modeled by human endothelial cells (HUVEC) and fibroblasts modeled by human mesenchymal stem cells (MSCs). The concentration ranges selected for each drug and investigational agent were based upon clinically achievable concentrations if the clinical Cmax of the agent was known.
Compounds. The drugs and investigational agents: inavolisib (NSC800729), alpelisib (NSC765974), duvelisib (NSC772469), copanlisib (NSC816437), ipatasertib (NSC767898), afuresertib (NSC778305), talazoparib (NSC767125), sapanisertib (NSC764658), selumetinib (NSC741078), tovorafenib (DAY101, NSC766906), vemurafenib (NSC761431), ravoxertinib (NSC781343), sotorasib (NSC818433), MRTX1133 (NSC 836407), abemaciclib (NSC 768073), palbociclib (NSC758247), venetoclax (NSC 766270), SY5609 (NSC837396), enzalutamide (NSC755605), and darolutamide (NSC825331), were obtained from the National Cancer Institute (NCI) Developmental Therapeutics Program Chemical Repository. The FDA-approved anticancer drug set is available from the NCI Developmental Therapeutics Program. […] The stock solutions were prepared in dimethyl sulfoxide (DMSO, Sigma-Aldrich, St. Louis, MO, cat. D2650) at 800-fold the tested concentration and stored at -70 degrees C prior to their use. All drugs and investigational agents were tested over a range starting from a high concentration at or near the clinical Cmax and decreasing in half-log increments. If the clinical Cmax for an agent had not been determined, the highest concentration tested was 10 microM.
Cell Culture. All cells were maintained in an incubator at 37 degrees C and 5% CO2 with 95% humidity. The PDC lines were cultured according to standard operating procedures established by the NCI PDMR (https://pdmr.cancer.gov/sops/default.htm). All PDCs were thawed and cultured in Matrigel-coated flasks prepared with a working solution of 1X Ham's F-12 nutrient mix, without supplementation (Invitrogen, Waltham, MA, cat. 11765054), 100 U/mL penicillin-streptomycin (Invitrogen, cat. 15140122), and 2.5% Matrigel (Corning Inc., Corning, NY, cat. 354248) for the first three passages. The 354836-022-R-J1-PDC, 475296-252-R-J1-PDC, and 997726-040-R-J2-PDC lines were cultured in 6A media, which includes advanced DMEM/F-12 (Thermo Fisher Scientific, cat. 12634028), 10 mM HEPES (Thermo Fisher Scientific, cat. 15630080), 1X GlutaMAX supplement (Thermo Fisher Scientific, cat. 35050061), 0.1 mg/mL primocin (InvivoGen, San Diego, CA, cat. ant-pm-2), 10% defined fetal bovine serum, heat inactivated (HyClone Laboratories Inc., Logan, UT, cat. SH30070.03HI), 50% L-WRN conditioned media (ATCC, cat. CRL-3276), 1.25 mM N-Acetyl-L-cysteine (Sigma-Aldrich, cat. A9165), 10 mM nicotinamide (Sigma-Aldrich, cat. N0636), 1X B-27 supplement (Thermo Fisher Scientific, cat. 17504044), 1X N-2 supplement (Thermo Fisher Scientific, cat. 17502048), and 10 microM Y-27632 dihydrochloride (Tocris Bioscience, Bristol, United Kingdom, cat. 1254). The 624824-186-R-J2-PDC line was cultured in 6C/Colon 1B media, which includes all 6A media components plus 50 ng/mL human EGF recombinant protein (Thermo Fisher Scientific, cat. PHG0311). […]
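Further: spheroids exposed to agents for 7 days before viability read.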

CNC(=O)c1ccc(N2C(=S)N(c3ccc(C#N)c(C(F)(F)F)c3)C(=O)C2(C)C)cc1F + CC(Nc1ccc2c(c1)OCCn1cc(N3C(=O)OCC3C(F)F)nc1-2)C(N)=O
inactive: viability, T/C (second compound 0.00316 µM, first compound 0.0316 µM) 92.4% | viability, T/C (second compound 0.00316 µM, first compound 0.1 µM) 108% | viability, T/C (second compound 0.00316 µM, first compound 0.316 µM) 109% | viability, T/C (second compound 0.00316 µM, first compound 1 µM) 108% | viability, T/C (second compound 0.00316 µM, first compound 3.16 µM) 132% | viability, T/C (second compound 0.00316 µM, first compound 10 µM) 103% | viability, T/C (second compound 0.01 µM, first compound 0.0316 µM) 105% | viability, T/C (second compound 0.01 µM, first compound 0.1 µM) 124% | viability, T/C (second compound 0.01 µM, first compound 0.316 µM) 115% | viability, T/C (second compound 0.01 µM, first compound 1 µM) 129% | viability, T/C (second compound 0.01 µM, first compound 3.16 µM) 111% | viability, T/C (second compound 0.01 µM, first compound 10 µM) 108% | viability, T/C (second compound 0.0316 µM, first compound 0.0316 µM) 110% | viability, T/C (second compound 0.0316 µM, first compound 0.1 µM) 118% | viability, T/C (second compound 0.0316 µM, first compound 0.316 µM) 111% | viability, T/C (second compound 0.0316 µM, first compound 1 µM) 126% | viability, T/C (second compound 0.0316 µM, first compound 3.16 µM) 109% | viability, T/C (second compound 0.0316 µM, first compound 10 µM) 111% | viability, T/C (second compound 0.1 µM, first compound 0.0316 µM) 121% | viability, T/C (second compound 0.1 µM, first compound 0.1 µM) 108% | viability, T/C (second compound 0.1 µM, first compound 0.316 µM) 125% | viability, T/C (second compound 0.1 µM, first compound 1 µM) 128% | viability, T/C (second compound 0.1 µM, first compound 3.16 µM) 126% | viability, T/C (second compound 0.1 µM, first compound 10 µM) 109% | viability, T/C (second compound 0.316 µM, first compound 0.0316 µM) 124% | viability, T/C (second compound 0.316 µM, first compound 0.1 µM) 104% | viability, T/C (second compound 0.316 µM, first compound 0.316 µM) 108% | viability, T/C (second compound 0.316 µM, first compound 1 µM) 115% | viability, T/C (second compound 0.316 µM, first compound 3.16 µM) 121% | viability, T/C (second compound 0.316 µM, first compound 10 µM) 108% | viability, T/C (second compound 1 µM, first compound 0.0316 µM) 79.8% | viability, T/C (second compound 1 µM, first compound 0.1 µM) 63.1% | viability, T/C (second compound 1 µM, first compound 0.316 µM) 72.7% | viability, T/C (second compound 1 µM, first compound 1 µM) 81.1% | viability, T/C (second compound 1 µM, first compound 3.16 µM) 94.5% | viability, T/C (second compound 1 µM, first compound 10 µM) 94.3%
< 5.00: pIC50 (second compound 0.00316 µM) | pIC50 (second compound 0.01 µM) | pIC50 (second compound 0.0316 µM) | pIC50 (second compound 0.1 µM) | pIC50 (second compound 0.316 µM) | pIC50 (second compound 1 µM)

Cn1cnc2c(F)c(Nc3ccc(Br)cc3Cl)c(C(=O)NOCCO)cc21 + CC(Nc1ccc2c(c1)OCCn1cc(N3C(=O)OCC3C(F)F)nc1-2)C(N)=O
6.93: pIC50 (second compound 0.316 µM)
6.08: pIC50 (second compound 0.1 µM)
inactive: viability, T/C (second compound 0.00316 µM, first compound 0.00949 µM) 105% | viability, T/C (second compound 0.00316 µM, first compound 0.03 µM) 100% | viability, T/C (second compound 0.00316 µM, first compound 0.0949 µM) 117% | viability, T/C (second compound 0.00316 µM, first compound 0.3 µM) 116% | viability, T/C (second compound 0.00316 µM, first compound 0.949 µM) 114% | viability, T/C (second compound 0.00316 µM, first compound 3 µM) 95.3% | viability, T/C (second compound 0.01 µM, first compound 0.00949 µM) 103% | viability, T/C (second compound 0.01 µM, first compound 0.03 µM) 105% | viability, T/C (second compound 0.01 µM, first compound 0.0949 µM) 114% | viability, T/C (second compound 0.01 µM, first compound 0.3 µM) 111% | viability, T/C (second compound 0.01 µM, first compound 0.949 µM) 126% | viability, T/C (second compound 0.01 µM, first compound 3 µM) 91.2% | viability, T/C (second compound 0.0316 µM, first compound 0.00949 µM) 107% | viability, T/C (second compound 0.0316 µM, first compound 0.03 µM) 119% | viability, T/C (second compound 0.0316 µM, first compound 0.0949 µM) 120% | viability, T/C (second compound 0.0316 µM, first compound 0.3 µM) 100% | viability, T/C (second compound 0.0316 µM, first compound 0.949 µM) 97.1% | viability, T/C (second compound 0.0316 µM, first compound 3 µM) 62.7% | viability, T/C (second compound 0.1 µM, first compound 0.00949 µM) 114% | viability, T/C (second compound 0.1 µM, first compound 0.03 µM) 116% | viability, T/C (second compound 0.1 µM, first compound 0.0949 µM) 104% | viability, T/C (second compound 0.1 µM, first compound 0.3 µM) 73.3% | viability, T/C (second compound 0.1 µM, first compound 0.949 µM) 49.5% | viability, T/C (second compound 0.1 µM, first compound 3 µM) 33% | viability, T/C (second compound 0.316 µM, first compound 0.00949 µM) 85.2% | viability, T/C (second compound 0.316 µM, first compound 0.03 µM) 73.1% | viability, T/C (second compound 0.316 µM, first compound 0.0949 µM) 52.7% | viability, T/C (second compound 0.316 µM, first compound 0.3 µM) 35.4% | viability, T/C (second compound 0.316 µM, first compound 0.949 µM) 26% | viability, T/C (second compound 0.316 µM, first compound 3 µM) 19.2% | viability, T/C (second compound 1 µM, first compound 0.00949 µM) 60.4% | viability, T/C (second compound 1 µM, first compound 0.03 µM) 50.7% | viability, T/C (second compound 1 µM, first compound 0.0949 µM) 36.9% | viability, T/C (second compound 1 µM, first compound 0.3 µM) 23.3% | viability, T/C (second compound 1 µM, first compound 0.949 µM) 15.9% | viability, T/C (second compound 1 µM, first compound 3 µM) 11.7%
< 5.52: pIC50 (second compound 0.00316 µM) | pIC50 (second compound 0.01 µM) | pIC50 (second compound 0.0316 µM)
7.49: pIC50 (second compound 1 µM)
